What all share (assay): biochemical
The target of assay [1] is 5-hydroxytryptamine receptor 6 (Homo sapiens, UniProt P50406).
Description: Displacement of [3H]-LSD from human 5-HT6R expressed in HEK293 cell membranes after 1 hr at 37 degC by microbeta counting method
The target in assay [2] is T1, 5-hydroxytryptamine receptor 1A (Homo sapiens, UniProt P08908).
T1 sequence (P08908 whole entry): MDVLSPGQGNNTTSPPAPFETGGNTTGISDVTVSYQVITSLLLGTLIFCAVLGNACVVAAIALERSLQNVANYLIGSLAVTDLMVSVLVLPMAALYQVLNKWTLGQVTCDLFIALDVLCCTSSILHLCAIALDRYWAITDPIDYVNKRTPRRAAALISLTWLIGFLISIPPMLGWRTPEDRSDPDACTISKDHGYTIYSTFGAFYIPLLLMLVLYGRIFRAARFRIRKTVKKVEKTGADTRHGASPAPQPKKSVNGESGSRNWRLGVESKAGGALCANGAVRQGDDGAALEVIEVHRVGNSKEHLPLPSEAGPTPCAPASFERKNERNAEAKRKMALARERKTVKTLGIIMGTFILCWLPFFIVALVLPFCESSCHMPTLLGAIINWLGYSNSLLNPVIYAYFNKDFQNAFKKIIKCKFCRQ
Description: Displacement of [3H]-8-OH-DPAT from human 5-HT1AR expressed in HEK293 cell membranes after 1 hr by microbeta counting method

In assay [3] the target is 5-hydroxytryptamine receptor 2A (Homo sapiens, UniProt P28223). It is filed as cell-based, CHO-K1.
Sequence of 5-hydroxytryptamine receptor 2A (P28223 whole entry): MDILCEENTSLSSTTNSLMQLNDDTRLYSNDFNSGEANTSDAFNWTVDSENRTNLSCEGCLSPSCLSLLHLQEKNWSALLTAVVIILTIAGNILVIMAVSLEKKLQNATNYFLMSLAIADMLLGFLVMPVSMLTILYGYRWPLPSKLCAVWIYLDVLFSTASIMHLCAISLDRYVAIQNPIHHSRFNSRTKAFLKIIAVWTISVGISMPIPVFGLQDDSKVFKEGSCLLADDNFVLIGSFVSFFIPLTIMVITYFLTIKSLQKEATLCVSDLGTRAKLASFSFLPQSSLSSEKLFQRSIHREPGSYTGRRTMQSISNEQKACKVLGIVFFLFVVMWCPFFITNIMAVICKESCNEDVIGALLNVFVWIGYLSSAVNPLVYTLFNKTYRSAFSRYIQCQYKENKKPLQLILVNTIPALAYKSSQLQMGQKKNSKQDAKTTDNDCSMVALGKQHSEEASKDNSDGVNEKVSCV
In assay [4] the target is 5-hydroxytryptamine receptor 7 (Homo sapiens, UniProt P34969).
Sequence of 5-hydroxytryptamine receptor 7 (P34969 whole entry): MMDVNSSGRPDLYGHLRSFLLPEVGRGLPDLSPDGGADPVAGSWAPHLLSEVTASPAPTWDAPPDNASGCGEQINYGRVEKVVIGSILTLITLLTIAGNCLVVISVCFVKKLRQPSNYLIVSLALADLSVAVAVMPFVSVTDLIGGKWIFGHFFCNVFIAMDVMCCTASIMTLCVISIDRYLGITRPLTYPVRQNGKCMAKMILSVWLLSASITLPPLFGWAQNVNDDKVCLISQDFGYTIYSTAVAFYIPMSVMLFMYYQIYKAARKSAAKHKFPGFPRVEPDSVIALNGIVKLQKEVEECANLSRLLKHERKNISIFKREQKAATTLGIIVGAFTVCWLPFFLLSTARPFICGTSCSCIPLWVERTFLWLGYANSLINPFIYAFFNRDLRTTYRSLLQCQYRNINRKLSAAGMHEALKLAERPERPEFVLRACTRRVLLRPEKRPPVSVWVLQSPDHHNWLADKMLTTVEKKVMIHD
Description: Displacement of [3H]-5-CT from human 5-HT7R expressed in HEK293 cell membranes after 1 hr at 37 degC by microbeta counting method

Sequence of 5-hydroxytryptamine receptor 6 (P50406 whole entry): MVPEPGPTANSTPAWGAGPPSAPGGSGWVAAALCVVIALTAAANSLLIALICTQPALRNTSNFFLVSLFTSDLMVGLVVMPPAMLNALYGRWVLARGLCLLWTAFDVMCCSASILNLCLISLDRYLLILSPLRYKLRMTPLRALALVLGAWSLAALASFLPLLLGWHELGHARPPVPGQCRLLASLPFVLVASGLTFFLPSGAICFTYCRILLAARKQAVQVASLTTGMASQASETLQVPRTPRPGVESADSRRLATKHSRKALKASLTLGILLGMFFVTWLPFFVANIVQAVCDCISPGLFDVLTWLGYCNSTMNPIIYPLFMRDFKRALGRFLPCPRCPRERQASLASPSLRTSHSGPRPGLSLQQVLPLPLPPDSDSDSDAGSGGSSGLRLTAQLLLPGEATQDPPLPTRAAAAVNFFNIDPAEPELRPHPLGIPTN

As usually defined, the Ki is the dissociation constant of the complex between target and ligand, obtained from inhibition or displacement. With `O=S(=O)(c1cncc2ccccc12)N1CCC[C@@H]1CCN1CCN(c2cccc3[nH]ccc23)CC1`, the Ki in assay [1] turned out to be 766 nM; in assay [2], 6 nM; in assay [3], 76 nM; in assay [4], 4 nM.

For the molecule `O=S(=O)(c1cccc2ncccc12)N1CCCC[C@@H]1CCN1CCN(c2nsc3ccccc23)CC1`, the inhibition constant (Ki) came to 949 nM in assay [1], 28 nM in assay [2], 29 nM in assay [3] and 52 nM in assay [4].

As for `O=S(=O)(c1cncc2ccccc12)N1CCC[C@H]1CCN1CCN(c2noc3ccccc23)CC1`, the Ki in assay [1] amounted to 497 nM; in assay [2], 96 nM; in assay [3] it was 33 nM; in assay [4], 6 nM.

On to `O=S(=O)(c1cccc2ncccc12)N1CCC[C@@H]1CCN1CCN(c2cccc3sccc23)CC1`, for which the Ki turned out to be 13 nM in assay [1], 15 nM in assay [2], 56 nM in assay [3] and 1 nM in assay [4].

For `O=S(=O)(c1cccc2ncccc12)N1CCC[C@H]1CCN1CC=C(c2c[nH]c3ccc(Cl)cc23)CC1`, the inhibition constant (Ki) came out at 77 nM in assay [1], 146 nM in assay [2], 1400 nM in assay [3] and 65 nM in assay [4].

As to `O=S(=O)(c1ccnc2ccccc12)N1CCCCC[C@H]1CCN1CCN(c2nsc3ccccc23)CC1`, the inhibition constant (Ki) worked out at 623 nM in assay [1], 50 nM in assay [2], 26 nM in assay [3] and 19 nM in assay [4].

`O=S(=O)(c1cccc2ncccc12)N1CC[C@@H]1CCN1CCN(c2cccc3sccc23)CC1`: the inhibitory constant (Ki) stood at 130 nM in assay [1], 9 nM in assay [2], 7 nM in assay [3] and 45 nM in assay [4].

On to `O=S(=O)(c1cccc2ncccc12)N1CCC[C@H]1CCN1CCC(c2noc3cc(F)ccc23)CC1`, for which the Ki in assay [1] stood at 169 nM; in assay [2], 147 nM; in assay [3], 12 nM; in assay [4], 12 nM.

As for `O=S(=O)(c1cccc2ncccc12)N1CCCCC[C@H]1CCN1CCN(c2cccc3sccc23)CC1`, the Ki in assay [1] turned out to be 176 nM; in assay [2] it was 12 nM; in assay [3], 51 nM; in assay [4], 19 nM.

As for `O=S(=O)(c1cncc2ccccc12)N1CC[C@@H]1CCN1CCN(c2cccc3sccc23)CC1`, the Ki in assay [1] is 104 nM; in assay [2], 16 nM; in assay [3] it was 16 nM; in assay [4] it was 31 nM.

`O=S(=O)(c1cccc2ncccc12)N1CCC[C@@H]1CCN1CC=C(c2c[nH]c3ccc(Cl)cc23)CC1`: the Ki in assay [1] stood at 18 nM; in assay [2], 91 nM; in assay [3], 1150 nM; in assay [4] it was 12 nM.

In the case of `O=S(=O)(c1cccc2ncccc12)N1CCCC[C@@H]1CCN1CCN(c2cccc3sccc23)CC1`, the inhibitory constant (Ki) in assay [1] was determined as 337 nM; in assay [2] it was 15 nM; in assay [3], 35 nM; in assay [4] it was 22 nM.

For `O=S(=O)(c1cccc2ncccc12)N1CCC[C@H]1CCN1CCN(c2cccc3c2OCCO3)CC1`, the Ki worked out at 2530 nM in assay [1], 6 nM in assay [2], 110 nM in assay [3] and 349 nM in assay [4].

Turning to `O=S(=O)(c1cncc2ccccc12)N1CCCC[C@@H]1CCN1CCN(c2cccc3sccc23)CC1`, the Ki in assay [1] came to 221 nM; in assay [2], 12 nM; in assay [3], 64 nM; in assay [4], 32 nM.

On to `O=S(=O)(c1cncc2ccccc12)N1CCCCC[C@H]1CCN1CCN(c2cccc3sccc23)CC1`, for which the inhibition constant Ki in assay [1] turned out to be 190 nM; in assay [2], 8 nM; in assay [3], 29 nM; in assay [4], 24 nM.

In the case of `O=S(=O)(c1cccc2ncccc12)N1CCC[C@H]1CCN1CCN(c2nsc3ccccc23)CC1`, the inhibitory constant (Ki) was determined as 311 nM in assay [1], 25 nM in assay [2] and 16 nM in assay [3].

On to `O=S(=O)(c1cccc2ncccc12)N1CCC[C@@H]1CCN1CCN(c2nsc3ccccc23)CC1`, for which the figures for the Ki in assay [1], in assay [2] and in assay [3] were 38 nM, 24 nM and 21 nM, respectively.

The record behind these values is ChEMBL document CHEMBL4229332, “Novel multi-target azinesulfonamides of cyclic amine derivatives as potential antipsychotics with pro-social and pro-cognitive effects” (Eur J Med Chem, 2018).
